Test results published in PMC7378375, “High-Throughput Screening of a Functional Human CXCL12-CXCR4 Signaling Axis in a Genetically Modified S. cerevisiae: Discovery of a Novel Up-Regulator of CXCR4 Activity” (Frontiers in Molecular Biosciences, 2020).

Biological target: CXCL12 (Homo sapiens, UniProt P48061)
Assay: 1H-15N HSQC NMR titration of […]-CXCL12 (global fit of eight resonances, pH […]); supported by SEC-MALS
Type: binding

CXCL12, sequence (P48061 22-88): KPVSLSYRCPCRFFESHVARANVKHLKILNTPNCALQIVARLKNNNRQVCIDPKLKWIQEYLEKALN

Kd: 147 µM
Structure (SMILES): O=C(O)c1ccccc1OP(=O)(O)O [fosfosal, 2-(phosphonooxy) benzoic acid]
